The record followed here is patent US9233185B2, “Absorbent article” (UNICHARM CORPORATION, priority 2012, dated 2016).

The text on series [1]: The term “solubility” used herein in regard to water solubility includes cases where the sample completely dissolves in deionized water to form a homogeneous mixture, and cases where the sample is completely emulsified. Here, “completely” means that no mass of the sample remains in the deionized water.
Series [2] can be described thus: Rewetting rate of sanitary napkin with top sheet coated with blood modifying agent. To be noted: horse EDTA blood 3.0 g twice at 37±1° C.; agent coated on top sheet at about 5 g/m^2. On the procedure: A commercially available sanitary napkin was prepared. The sanitary napkin was formed from a top sheet, formed of a hydrophilic agent-treated air-through nonwoven fabric (composite fiber composed of polyester and polyethylene terephthalate, basis weight: 35 g/m^2), a second sheet, formed of an air-through nonwoven fabric (composite fiber composed of polyester and polyethylene terephthalate, basis weight: 30 g/m^2), an absorbent body comprising pulp (basis weight: 150-450 g/m^2, increased at the center section), an acrylic super-absorbent polymer (basis weight: 15 g/m^2) and tissue as a core wrap, a water-repellent agent-treated side sheet, and a back sheet composed of a polyethylene film.
(§1) The skin contact surface of the top sheet of the sanitary napkin was coated with the aforementioned blood modifying agent. Each blood modifying agent was used directly, when the blood modifying agent was liquid at room temperature, or when the blood modifying agent was solid at room temperature it was heated to its melting point +20° C., and a control seam HMA gun was used for atomization of the blood modifying agent and coating onto the entire skin contact surface of the top sheet to a basis weight of about 5 g/m^2.
(§2) An acrylic board with an opened hole (200 mm×100 mm, 125 g, with a 40 mm×10 mm hole opened at the center) was placed on a top sheet comprising each blood modifying agent, and 3.0 g of horse EDTA blood at 37±1° C. (obtained by adding ethylenediaminetetraacetic acid (hereunder, “EDTA”) to horse blood to prevent coagulation) was dropped through the hole using a pipette (once), and after 1 minute, 3.0 g of horse EDTA blood at 37±1° C. was again added dropwise through the acrylic board hole with a pipette (twice).
After the second dropping of blood, the acrylic board was immediately removed and 10 sheets of filter paper (Advantec Toyo Kaisha, Ltd, Qualitative Filter Paper No. 2, 50 mm×35 mm) were placed on the location where the blood had been dropped, and then a weight was placed thereover to a pressure of 30 g/cm^2. After 1 minute, the filter paper was removed, and the “rewetting rate” was calculated by the following formula. Rewetting rate(%)=100×(filter paper mass after test−initial filter paper mass)/6

Series [3] can be described thus: Absorbent body migration rate after second dropping of blood. To be noted: time after second dropping of horse EDTA blood; agent about 5 g/m^2. As for the experimental part:
as §1, §2
In addition to the rewetting rate evaluation, the “absorbent body migration rate” was also measured as the time until migration of blood from the top sheet to the absorbent body after the second dropping of blood. The absorbent body migration rate is the time from introducing the blood onto the top sheet, until the redness of the blood […] on the surface and in the interior of the top sheet.

A short description of series [4]: Visual evaluation of whiteness of skin contact surface of top sheet. Also on record: species or system horse; key: VG (Very Good): Virtually no redness of blood remaining, and no clear delineation between areas with and without blood.; G (Good): Slight redness of blood remaining, but difficult to delineate between areas with and without blood.; F (Fair): Slight redness of blood remaining, areas with blood discernible.; P (Poor): Redness of blood completely remaining. To be noted: after absorbent body migration rate test. An excerpt: The whiteness of the skin contact surface of the top sheet after the absorbent body migration rate test was visually evaluated on the following scale.
VG (Very Good): Virtually no redness of blood remaining, and no clear delineation between areas with and without blood.
G (Good): Slight redness of blood remaining, but difficult to delineate between areas with and without blood.
F (Fair): Slight redness of blood remaining, areas with blood discernible.
P (Poor): Redness of blood completely remaining.

Series [5] can be described thus: Surface tension of blood containing blood modifying agent, pendant drop method. To be noted: sheep defibrinated blood; amount 0.10 mass %; 35 ° C. On the procedure:
The surface tension of blood containing a blood modifying agent was measured by the pendant drop method, using a Drop Master500 contact angle meter by Kyowa Interface Science Co., Ltd. The surface tension was measured after adding a prescribed amount of blood modifying agent to sheep defibrinated blood, and thoroughly shaking. The measurement was accomplished automatically with a device, and the surface tension γ was determined by the following formula (see FIG. 10). γ=g×ρ×(de)^2×1/H The density ρ was measured at the temperatures listed in Table 7, according to JIS K 2249-1995, “Density test methods and density/mass/volume conversion tables”, “5. Vibrating density test method”. The measurement was accomplished using a DA-505 by Kyoto Electronics Co., Ltd.

As for `CC(C)CCCCCCCCCCCCCCCOC(=O)CC(O)C(=O)OCCCCCCCCCCCCCCCC(C)C` (centres unmarked) [Diisostearyl malate], in series [1], the Water solubility is recorded as 20< g. Further, the Rewetting rate in series [2] was found to be 5.5%. In series [3], the “Absorbent body migration rate” value turned out to be 8 s. Also, the Top sheet whiteness result in series [4] is listed as “F”.

Isopropyl citrate gave a Rewetting rate in series [2] of 12.2%. Besides, the “Absorbent body migration rate” value in series [3] was 5 s. Also, in series [4], the Top sheet whiteness result was “G”.

On to `CCCCC(CC)C(=O)OCC(COC(=O)C(CC)CCCC)OC(=O)C(CC)CCCC` (centres unmarked) [PANACET 800B], for which the Water solubility in series [1] is given as below 0.05 g. The compound further came in with a Rewetting rate in series [2] of 2.0%. The “Absorbent body migration rate” value in series [3] turned out to be 3 s. The Top sheet whiteness entry in series [4] is recorded as “VG”.

For `CCCCCCCCOC(=O)CCCCC(=O)OCCCCCCCC` [Dioctyl adipate], the Rewetting rate in series [2] is 1.7%. For the same compound, in series [3], the “Absorbent body migration rate” value is 6 s. The Top sheet whiteness entry in series [4] is on record as “VG”.

On to `CCCCC(CC)C(=O)OCC(COC(=O)C(CC)CCCC)(COC(=O)C(CC)CCCC)COC(=O)C(CC)CCCC` (centres unmarked) [H-408BRS, Pentaerythritol tetra(2-ethylhexanoate)], for which the Top sheet whiteness entry in series [4] is given as “VG”.

Consider “Caprylic acid diglyceride [Caprylic diglyceride]”, for which, in series [2], the Rewetting rate is 4.2%. Besides, the “Absorbent body migration rate” value in series [3] came to 9 s. Moreover, the Top sheet whiteness entry in series [4] is “G”.

Compound `CCCCCCCC(=O)OCC(COC(=O)CCCCCCC)OC(=O)CCCCCCC` [PANACET 800] returned a Water solubility in series [1] below 0.05 g. In series [2], this compound showed a Rewetting rate of 0.3%. In addition, in series [3], the “Absorbent body migration rate” value worked out at 3 s. For the same compound, in series [4], the Top sheet whiteness result is “VG”.

The compound `CCCCOC(=O)CC(CC(=O)OCCCC)(OC(C)=O)C(=O)OCCCC` [Tributyl O-acetylcitrate] had a Water solubility in series [1] below 0.05 g. The Rewetting rate in series [2] is given as 6.2%. Moreover, the “Absorbent body migration rate” value in series [3] came to 8 s. Moreover, the Top sheet whiteness entry in series [4] is “VG”.

For `CCCCC(CC)C(=O)OCC(C)(C)COC(=O)C(CC)CCCC` (centres unmarked) [H-208BRS, Neopentyl glycol di(2-ethylhexanoate)], in series [1], the Water solubility is reported as below 0.05 g. The Rewetting rate in series [2] was determined as 2.0%. In series [3], the “Absorbent body migration rate” value came out at 5 s. Moreover, the Top sheet whiteness entry in series [4] is recorded as “VG”.

In series [2], `CCCCCCCCCCCC(=O)OCC(O)CO` (centres unmarked) [90-L2 Lauric acid monoglyceride, lauric acid monoglyceride] came in with a Rewetting rate of 6.2%. In series [4], the Top sheet whiteness result is “P”.

For the compound `CCCCCCCCCCCCCC(=O)OCCCCCCCCCCCC` [ELECTOL WE40, Ester of tetradecanoic acid (C14) and dodecyl alcohol (C12)], the Rewetting rate in series [2] is on record as 1.8%. Further, the “Absorbent body migration rate” value in series [3] is 4 s. Moreover, the Top sheet whiteness entry in series [4] was “VG”.

Compound `CCCCCCCCCCCCOC(=O)CCCCCCCCCCC` [ELECTOL WE20, Ester of dodecanoic acid (C12) and dodecyl alcohol (C12)] came in with a Rewetting rate in series [2] of 1.8%. The Top sheet whiteness entry in series [4] was “VG”. The compound further yielded a Surface tension in series [5] of 58.8 mN/m.
